These results are taken from publication PMC11719397, “Monophthalates of betulinic acid and related pentacyclic triterpenes inhibit efficiently the SOS-mediated nucleotide exchange and impact PI3K/AKT signaling in oncogenic K-RAS4B proteins” (RSC Advances, 2025).

Data set [1] deals with K-RAS4B wild-type (Homo sapiens, UniProt P01116). Nature of the data set: Nucleotide exchange assay (SOS1-mediated GDP/GTP exchange, GDP-Glo), K-RAS4B wild-type. Type of data set: biochemical. Conditions: K-RAS4B GDP/GTP exchange; eight data points, at least three determinations; (*) single determination.
Data set [2] has as its target T1, K-RAS4B^G12D (Homo sapiens, UniProt P01116, G12D). Nature of the data set: biochemical. The settings on record: K-RAS4B GDP/GTP exchange; eight data points, at least three determinations.
Target sequence in this assay (P01116 1-188 isoform P01116-2 G12D): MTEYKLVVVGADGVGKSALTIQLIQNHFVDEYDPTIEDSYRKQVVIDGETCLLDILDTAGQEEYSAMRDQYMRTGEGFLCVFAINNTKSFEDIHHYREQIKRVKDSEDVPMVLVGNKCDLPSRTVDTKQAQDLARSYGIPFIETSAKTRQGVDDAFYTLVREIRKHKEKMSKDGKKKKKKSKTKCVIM
The next data set has as its target K-RAS4B G12V (Homo sapiens, UniProt P01116, G12V). Nature of the data set: Nucleotide exchange assay (SOS1-mediated GDP/GTP exchange, GDP-Glo), K-RAS4B G12V. Type of data set: biochemical. Conditions: eight data points, at least three determinations, (*) single determination.
Data set [3] concerns ERK phosphorylation in SNU-1 cells (K-RAS4B^G12D). Nature of the data set: HTRF ERK phosphorylation assay in SNU-1 cells. Type of data set: cell-based. Conditions: Homo sapiens, SNU1, read-out: SNU-1 pERK inhibition IC50. On the procedure: (§1) For selected betulinic acid derivatives quantitative ERK and AKT phosphorylation was measured in SNU-1 (K-RAS4B^G12D) and A375 cells (K-RAS4B^wt) to determine whether pentacyclic triterpenes act via the RAS-RAF-MEK-ERK or the RAS-PI3K-PDK1-AKT downstream cascade (Table 2). The betulinic acid derivatives tested, had no activity on the ERK pathway, but inhibited AKT phosphorylation with micromolar IC50 values in agreement with literature reports.[50,51] […] No activity was detected in A375 cells carrying a BRAF but no K-RAS mutation.
(§2) SNU-1 cells harbouring the K-RASG12D mutation (primary carcinoma of the stomach), were grown in RPMI medium with 10% FBS (fetal bovine serum) and 1% L-Gln. Cells were plated in white small volume cell culture 384 well microplates (Greiner BioOne GmbH) at a density of 50.000 cells per well/6 μL in RPMI medium with 1% L-glut (serum-free medium). The plated cells were placed in a high humidity incubator (37 °C, 5% CO2 and 90% humidity) to avoid evaporation of the small amount of medium for 3 hours before the compounds were added. With the Echo520 liquid handler the cells were treated with a 3-fold 8-point serial dilution of the compounds, with a top final concentration of 330 μM and a final DMSO concentration of 1%. After compound transfer, cells were incubated for 1 hour in the high humidity incubator before the cells were treated with 3 μL of 9 nM EGF diluted in serum-free medium (final EGF concentration in the well 3 nM) for 15 minutes. The lysis buffer from the Phospho-ERK 1/2 (Thr202/Tyr204)- and the Total ERK1/2 LANCE Ultra TR-FRET Cellular Detection Kit (PerkinElmer Inc.) was prepared to a 4-fold concentration in water. Then 3 μL of the lysis buffer were added to each well and the plates were shaken at 300 rpm for 30 minutes at room temperature. During this incubation the antibody detection mix was prepared according to the manufacturer's protocol. In the final step 3 μL of antibody detection mix were added to each well. The plates were sealed with an aluminium sticky foil and incubated over night at room temperature for 20 hours. The detection was performed with the EnVision2104 Multilabel Reader.

For data set [4], the system named is AKT phosphorylation in SNU-1 cells (K-RAS4B^G12D). Nature of the data set: HTRF AKT phosphorylation assay in SNU-1 cells. Type of data set: cell-based. The settings on record: Homo sapiens, SNU1, read-out: SNU-1 pAKT inhibition IC50. The method, then:
as §1, §2

Data set [5] concerns ERK phosphorylation in A375 cells (K-RAS4B^wt). Nature of the data set: HTRF ERK phosphorylation assay in A375 cells. In kind it is cell-based. Conditions: Homo sapiens, A-375; A375 cells (K-RAS4B^wt, BRAF mutation); two determinations; read-out: A375 pERK inhibition IC50. The method, then:
as §1, §2

Data set [6] relates to AKT phosphorylation in A375 cells (K-RAS4B^wt). Nature of the data set: HTRF AKT phosphorylation assay in A375 cells. Type of data set: cell-based. Conditions: Homo sapiens, A-375; A375 cells (K-RAS4B^wt, BRAF mutation); two determinations; read-out: A375 pAKT inhibition IC50. The method, then:
as §1, §2
On the technique in general: Time-resolved FRET reads energy transfer from a long-lived donor to a nearby acceptor.

Data set [7] deals with a series of cancer cell lines. Details: method as in PMID 25909174. Conditions: read-out: cytotoxic IC50 against a series of cancer cell lines; cited from earlier work.
The target of another data set is T2, K-RAS4B^wt (Homo sapiens, UniProt P01116).
T2 construct: a fusion protein of LgBiT and full-length RAS; a fusion protein of SmBiT(q) and full-length RAS in cells; expressed in transfected cells; host or cells: HEK239T (so in the source)
Nature of the data set: NanoBRET target engagement assay, K-RAS4B^wt (displacement of BI2852 tracer from SI/SII site). Type of data set: cell-based. Conditions: live cells; displacement of BI2852 from the K-Ras4B SI/II binding-site; read-out: K-RAS4B^wt NanoBRET TE KD. The text has this:
(§3) To obtain further information on the mode of action, selected GDP/GTP exchange inhibitors were studied in additional assays (Table 3). A target engagement assay, which is based on bioluminescence resonance energy transfer (BRET), was used to measure target engagement at protein complexes in live cells (Fig. 5a). The BRET effect results from an energy transfer between the target luciferase fusion protein and a cell-permeable fluorescent tracer in intact cells.
(§4) Fig. 5 Schematic illustrations of the RAS cellular target engagement and RAS:SOS protein–protein interaction assay. (a) NanoBRET target engagement (TE) assay: when the fusion proteins LgBiT-RAS and SmBiT(q)-RAS interact in live-cells, they form an active luciferase as a BRET donor. The BRET receptor is a fluorescent NanoBRET® tracer that binds specifically to K-RAS. K-RAS binders displace the tracer and reduce the BRET signal in a dose-dependent manner.
(§5) The NanoBRET® TE Intracellular RAS Assay uses NanoBiT® Technology, a structural complementation system comprised of a large luciferase subunit (LgBiT) and a small complementary peptide (SmBiT(q)). Specifically, a fusion protein of LgBiT and full-length RAS is co-expressed with a fusion protein of SmBiT(q) and full-length RAS in cells. When the RAS proteins interact and form multimers, the LgBiT and SmBiT(q) subunits come together to form an active luciferase enzyme that serves as the BRET donor. The energy acceptor is a cell-permeable fluorescent NanoBRET® tracer that binds specifically to RAS. […] After mixing the plate for 1 min and incubation at room temperature for 15 min 1 μL of NanoBRET TE RAS Tracer 01 (final concentration 1 μM) was added followed by another mixing step. After 2 h incubation (37 °C, 5% CO2) and 15 min at room temperature 5 μL of NanoBRET™ Nano-Glo® substrate was added followed by a mixing step.

Data set [8] concerns the target (GTP)K-RAS4B^wt:SOS1 complex (Homo sapiens, UniProt P01116+Q07889). Nature of the data set: HTRF K-RAS^wt:SOS protein-protein interaction assay.
Protocol: The interaction of (GTP)K-RAS4B^wt and SOS was measured with a HTRF assay using an SOS-specific antibody labeled with terbium cryptate as HTRF (homogeneous time-resolved fluorescence) donor and a K-RAS4B^wt specific antibody labeled with an HTRF acceptor (XL665).[52]
To test the compounds effect on the interaction of K-RAS and SOS1 proteins a commercial assay from Revvity (product code 64[sequence]) was used. The K-RAS WT/SOS1 PPI assay includes tagged human recombinant partners (K-RAS WT and SOS1) and labelled anti-tag reagents for HTRF detection. Without an inhibitor, K-RAS WT loaded with GTP binds to SOS1, and the binding of each detection reagent to its tagged target generates an HTRF signal. In the presence of K-RAS WT/SOS1 inhibitors or GTP competitors, the HTRF signal decreases.
After an incubation step for 10 min at room temperature 3 μL Tag1-KRAS protein was added followed by 7.5 μL detection mix containing anti-Tag2 antibody labeled with Terbium cryptate and anti-Tag1 antibody labeled with XL665. […] IC50 values were determined from the sigmoidal dose response curves with the Scigilian Analyze software (Scigilian, Monteral, Canada).
Data set [9] has as its target T1, K-RAS4B^G12D. Nature of the data set: cell-based. Details: a fusion protein of LgBiT and full-length RAS; a fusion protein of SmBiT(q) and full-length RAS in cells; expressed in transfected cells; host or cells: HEK239T (so in the source). The settings on record: live cells; displacement of BI2852 from the K-Ras4B SI/II binding-site; read-out: K-RAS4B^G12D NanoBRET TE KD.
Excerpt: as §3, §4, §5
Target sequence in this assay (P01116 1-188 isoform P01116-2 G12D): as above
Target sequence in this assay (P01116 1-188 isoform P01116-2 G12D): as above
On the technique in general: BRET reads energy transfer from a luciferase to a nearby fluorophore.

The test system of data set [10] is K-RAS4B wild-type. Nature of the data set: Nucleotide exchange assay (SOS1-mediated GDP/GTP exchange, GDP-Glo), K-RAS4B wild-type. In kind it is biochemical. Conditions: GDP/GTP exchange IC50 of wild-type versus G12D/G12V mutants.
In data set [11] the target is T1, K-RAS4B^G12D. Nature of the data set: Surface plasmon resonance (SPR), K-RAS4B^G12D. Type of data set: binding. The settings on record: K-RAS4B^G12D alone. (In general: In SPR one partner is held on a chip, and binding of the other changes the refractive index at the surface.)
Target sequence in this assay (P01116 1-188 isoform P01116-2 G12D): as above
The next data set addresses T3, SOS (Homo sapiens, UniProt Q07889).
T3 sequence (Q07889 1-1333): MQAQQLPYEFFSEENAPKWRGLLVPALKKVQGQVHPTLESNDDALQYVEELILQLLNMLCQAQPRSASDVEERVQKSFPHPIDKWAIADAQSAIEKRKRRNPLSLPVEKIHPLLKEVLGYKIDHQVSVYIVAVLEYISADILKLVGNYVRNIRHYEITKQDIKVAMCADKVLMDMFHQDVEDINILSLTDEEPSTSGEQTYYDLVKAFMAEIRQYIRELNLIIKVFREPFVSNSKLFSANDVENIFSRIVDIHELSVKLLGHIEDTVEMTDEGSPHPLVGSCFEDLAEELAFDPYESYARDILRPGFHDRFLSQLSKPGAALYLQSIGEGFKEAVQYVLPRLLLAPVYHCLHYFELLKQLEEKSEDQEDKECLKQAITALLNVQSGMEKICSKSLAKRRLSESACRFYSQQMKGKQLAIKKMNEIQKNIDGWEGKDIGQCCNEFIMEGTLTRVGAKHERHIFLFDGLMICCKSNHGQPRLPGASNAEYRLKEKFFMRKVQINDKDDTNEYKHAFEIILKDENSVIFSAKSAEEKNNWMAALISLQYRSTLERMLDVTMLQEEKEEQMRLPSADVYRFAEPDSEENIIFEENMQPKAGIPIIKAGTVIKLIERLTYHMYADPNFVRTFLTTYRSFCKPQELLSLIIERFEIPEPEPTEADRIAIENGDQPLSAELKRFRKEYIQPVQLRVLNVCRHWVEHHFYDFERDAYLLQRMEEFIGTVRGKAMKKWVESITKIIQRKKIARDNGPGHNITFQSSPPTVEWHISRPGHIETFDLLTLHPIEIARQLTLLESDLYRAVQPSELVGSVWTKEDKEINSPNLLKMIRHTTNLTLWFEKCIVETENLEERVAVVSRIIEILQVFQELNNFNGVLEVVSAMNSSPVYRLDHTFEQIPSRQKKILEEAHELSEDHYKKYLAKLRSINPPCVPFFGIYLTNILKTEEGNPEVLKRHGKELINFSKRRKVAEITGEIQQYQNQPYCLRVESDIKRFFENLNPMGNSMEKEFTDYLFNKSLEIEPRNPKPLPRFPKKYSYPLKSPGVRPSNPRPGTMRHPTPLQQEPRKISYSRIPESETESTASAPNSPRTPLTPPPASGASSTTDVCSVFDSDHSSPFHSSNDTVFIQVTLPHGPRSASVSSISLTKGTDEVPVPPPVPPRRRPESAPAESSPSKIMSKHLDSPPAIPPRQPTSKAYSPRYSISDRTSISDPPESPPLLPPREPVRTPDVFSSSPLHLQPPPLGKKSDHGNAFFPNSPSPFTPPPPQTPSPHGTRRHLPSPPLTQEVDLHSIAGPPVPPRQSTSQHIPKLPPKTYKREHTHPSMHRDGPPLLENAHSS
Nature of the data set: Surface plasmon resonance (SPR), SOS. Type of data set: binding. The settings on record: SOS alone.

What is called IC50 is the point on the concentration scale where inhibition reaches its midpoint. By solubility is commonly meant the dissolved amount per volume that the medium holds. Higher therefore signals a readily soluble substance. Broadly, the Kd is the concentration at which binding is half-saturated.

Values after ≈ are worked out from the molar mass of the structure shown.

K-RAS4B G12V, sequence (P01116 1-188 isoform P01116-2 G12V): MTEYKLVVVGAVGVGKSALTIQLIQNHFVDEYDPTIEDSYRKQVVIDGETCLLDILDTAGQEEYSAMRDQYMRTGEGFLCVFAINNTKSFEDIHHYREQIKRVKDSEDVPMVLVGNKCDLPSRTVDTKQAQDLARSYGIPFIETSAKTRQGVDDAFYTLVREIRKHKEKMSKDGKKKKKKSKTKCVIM
K-RAS4B wild-type (Homo sapiens, UniProt P01116), sequence (P01116 1-188 isoform P01116-2): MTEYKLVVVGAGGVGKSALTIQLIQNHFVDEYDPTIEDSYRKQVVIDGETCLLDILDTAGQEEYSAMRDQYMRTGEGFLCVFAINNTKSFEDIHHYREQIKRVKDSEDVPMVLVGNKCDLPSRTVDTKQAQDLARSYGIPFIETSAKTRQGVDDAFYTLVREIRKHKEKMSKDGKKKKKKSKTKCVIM
T2 sequence (P01116 1-188 isoform P01116-2): as above
T2 sequence (P01116 1-188 isoform P01116-2): as above
(GTP)K-RAS4B^wt:SOS1 complex, sequence (P01116 1-188 isoform P01116-2, one chain of several): as the sequence (P01116 1-188 isoform P01116-2) above

For the compound `C=C(C)[C@@H]1CC[C@]2(C(=O)O)CC[C@]3(C)[C@H](CC[C@@H]4[C@@]5(C)CC[C@H](OC(=O)c6ccccc6C(=O)O)C(C)(C)[C@@H]5CC[C@]43C)[C@@H]12` [Compound 19], the IC50 against K-RAS4B wild-type [1] was 15.3 ± 3.8 µM; against K-RAS4B^G12D [2] it was 10.4 ± 4.7 µM; on K-RAS4B G12V, 16.6 ± 5.2 µM; in [3] it was more than 300 µM; in data set [4] it was 19 µM; in data set [5] it was more than 1000 µM. For the same compound, the IC50 was more than 1000 µM in data set [6] and not above 10 µM in data set [7]. The solubility in the data set “Solubility” was 191 µM (≈ 116 µg/mL).

Take `COc1cc(C(=O)O)c(C(=O)OC2CCC3(C)C(CCC4(C)C3CC=C3C5CC(C)(C)CCC5(C(=O)O)CCC34C)C2(C)C)cc1OC` (stereo not shown) [Compound 47]: the IC50 against K-RAS4B wild-type [1] is 2.71 ± 1.3 µM; at K-RAS4B^G12D [2] it was 1.61 ± 0.85 µM; on K-RAS4B G12V it was 2.9 ± 0.51 µM. Besides, the equilibrium dissociation constant (Kd) is 39 µM at K-RAS4B^wt, more than 50 µM in data set [8] and more than 50 µM at K-RAS4B^G12D [9]. In “Solubility”, the solubility was 302 µM (≈ 201 µg/mL).

As for `C=C(C)[C@@H]1CC[C@]2(C(=O)O)CC[C@]3(C)[C@H](CC[C@@H]4[C@@]5(C)CC[C@H](OC(=O)CC(C)(C)C(=O)O)C(C)(C)[C@@H]5CC[C@]43C)[C@@H]12` [Compound 28, bevirimat, reference compound], the results for the IC50 on K-RAS4B wild-type [1], at K-RAS4B^G12D [2] and against K-RAS4B G12V were 2.15 ± 0.17 µM, 0.59 ± 0.19 µM and 0.61 ± 0.14 µM, respectively. Also, the “selectivity factor, mutant versus K-RAS4B^wt” value with K-RAS4B wild-type [10] is reported as 3–4. The results for the Kd on K-RAS4B^G12D [11] and on SOS were more than 300 µM and more than 1000 µM, respectively.
